The results in this text go back to patent US20130123367A1, “VINYLOGOUS CHALCONE DERIVATIVES AND THEIR MEDICAL USE” (MEDIZINISCHE UNIVERSITAT WIEN, priority 2010, published 2013).

Read-outs that look alike come from different tables or passages of the source.

The test system of data set [1] is melanoma cell line 518A2. Briefly: Cell proliferation assay using crystal violet, 518A2. Format: cell-based. The settings on record: for IC50: Homo sapiens, 518A2, crystal violet assay, n = 3, 48 h incubation. On the procedure: For quantification, cells are treated with crystal violet, a dye that stains proteins. After washing away of excess dye, the remaining crystal violet is dissolved in a sodium citrate solution. The solution is analyzed photometrically at 590 nm. The optical density of this solution depends on the concentration of crystal violet and therefore on the amount of cells. […] To reduce effects of evaporation, only the inner 60 wells of 96-well plates (coated with 0.1% gelatine solution for studies with HUVEC) were used for experiments.
Cells were seeded at a density of 5 000 cells per well in 100 μl growth medium (HUVEC) or 20 000 (HCT116), 15 000 (SW480 and 518A2) or 10 000 (HT29) cells per well in 200 μl growth medium in 55 wells per plate. 5 wells were filled with medium only. Additionally, a 96-well plate with cells in 12 wells and medium in 6 wells was prepared as T0-plate. The next day, additional 98 μl of growth medium were added in every well (only HUVEC).
Cells were treated with 2 μl of the working solution 24 h after seeding. Final compound concentrations in the well were 10 μM for the first round of screening. The final DMSO concentration was 0.5%. […] After finishing the addition of compounds, the T0-plate was stained with crystal violet for giving the cell density at time point zero. Before staining, the growth medium was poured away. Wells were filled with 50 μl crystal violet solution for 10 min. Then the staining solution was washed away with water. Since crystal violet is environmentally hazardous the waste was collected and disposed in an appropriate manner. After air drying of the plates the crystal violet on the cells was dissolved in 100 μl of sodium citrate solution, and the absorption was measured with a plate reader at 590 nm.
Mean values were corrected with the absorption of stained medium and the corrected absorption of T0 cells. Cell growth was calculated relative to DMSO control for data comparison. IC50 values (50% inhibition of cell growth) were determined with GraphPad Prism® (Version 4.03) using nonlinear regression (sigmoidal dose-response with variable slope).
Compounds showing an inhibition of proliferation of more than 50% at a concentration of 10 μM were defined as active, and their IC50-values were determined.

The test system of data set [2] is healthy peripheral blood mononuclear cells (PBMC). Briefly: Effect on healthy PBMC (CellTiter-Blue viability). The procedure:
FIG. 8: Effect of compounds 1 and 22 according to the invention as well as the control drugs fludarabine and cyclophosphamide on the viability of healthy peripheral blood mononuclear cells (PBMC) in suspension culture after 48 h incubation. Data points represent one individual calculated in relation to the control. Viability was measured using the CellTiter Blue assay (Promega, Madison, Wis., USA), and cells incubated in solvent only were used as control.
For quantification, cells were treated with resazurin (7-hydroxy-3H-phenoxazin-3-one 10-oxide) as indicator of cell viability. The method is based on the finding that living cells are able to reduce the non-fluorescent blue dye into the pink colored and highly red fluorescent resorufine. After adding the substrate the cells are incubated for 2 to 4 hours. Then, the solution is analyzed at 560 nm Ex/590 nm Em on a fluorometer. Appropriate cell density for seeding and duration of treatment with the substrate were determined in preliminary experiments.
First, cells were seeded in 96 well plates and then growth medium was added to each well to get a final volume of 80 μl. Compounds to be tested were diluted with medium from a 10 mM stock solution in DMSO to get different concentrations, and 20 μl of these solutions were added to the wells. The final DMSO concentration was 0.5%. All treatments and controls were performed in at least triplicates. Cells were incubated at 37° C. and 5% CO2 for 48 h. Then, 20 μl substrate solution was added to the wells, plates were incubated for 3 hours and analyzed.
The impact of the compounds according to the invention on healthy cells was assessed using peripheral blood mononuclear cells (PBMC). Cell viability was tested using the CellTiter-Blue Cell Viability Assay (Promega, Madison, Wis., USA) as described in Example 7.

The subject of data set [3] is hematological cell lines. Briefly: Viability assay in cell lines, summary of Table 4. Format: cell-based. Conditions: after 48 hours in most of the cell lines, read-out: IC50-values obtained by the viability assay in cell lines. On the procedure: (§1) For quantification, cells are treated with a tetrazolium salt as indicator of cell viability. […] Then, the solution is analyzed photometrically at 450 nm with 620 nm as reference.
(§2) The final DMSO concentration was 0.5%. […] Then, wells were filled with 20 μl substrate solution for 2 to 4 hours and analyzed.
(§3) Cell viability was calculated relative to DMSO control for data comparison. IC50 values (50% inhibition of cell growth) were determined with GraphPad Prism® (Version 4.03) using nonlinear regression (sigmoidal dose-response with variable slope).

For data set [4], the system named is SU-DHL-6 or SU-DHL-9 NHL cells. Briefly: Annexin V-FITC / propidium iodide staining, early apoptosis in NHL cells. The class given is cell-based. The settings on record: 48 h incubation; FIG. 2. The procedure:
FIG. 2. Changes in early apoptosis in SU-DHL-6 or SU-DHL-9 NHL cells after 48 h incubation with compounds 1 and 22, respectively. Effect of compound 1 in a) SU-DHL-6 and b) SU-DHL-9, and effect of compound 22 in c) SU-DHL-6 and d) SU-DHL-9. Apoptosis was detected using propidium iodide/Annexin V FACS staining (Bender MedSystems). Viability was detected using the EZ4U viability kit (Biomedica).
Annexin V binds to phosphatidylserine which is exposed at the cell surface during execution of apoptosis. […] The final DMSO concentration was 0.5%. All treatments and controls were performed twice. […] Then, growth medium was removed by centrifugation, the supernatant discarded and 200 μl of an Annexin V solution were added. After 10 minutes in the dark, cells were washed once with Annexin buffer and the solution removed by centrifugation. The supernatant was discarded again and cells were suspended in 200 μl of a propidium iodide solution. Cells were measured by flow cytometry with a total of 10 000 events. Data were analyzed with CellQuest Pro™.

Data set [5] deals with primary chronic lymphocytic leukemia (CLL) cells. Kind of data set: In vitro drug test in primary CLL cells (CellTiter-Blue viability). Format: cell-based. Conditions: 48 h incubation; mean of 15 patients; FIG. 6. The text has this: FIG. 6: […] Data points represent the arithmetic mean of 15 patients calculated in relation to the control. […] The final DMSO concentration was 0.5%.
For orientation: Alamar Blue is a resazurin reagent that responds to reducing activity.

In data set [6] the test system is SU-DHL-6 (Non Hodgkin's lymphoma). Briefly: Cell viability assay using EZ4U viability kit, SU-DHL-6. Format: cell-based. The settings on record: Homo sapiens. The procedure: as §1, §2, §3
The test system of data set [7] is CCRF-CEM (T-cell acute lymphoblastic leukemia). Briefly: Cell viability assay using EZ4U viability kit, CCRF-CEM. Format: cell-based. The settings on record: Homo sapiens. The procedure:
as §1, §2, §3

Data set [8] deals with SU-DHL-9 (Non Hodgkin's lymphoma). Kind of data set: Cell viability assay using EZ4U viability kit, SU-DHL-9. Format: cell-based. On the procedure: as §1, §2, §3
The mark [9] stands for this setting: 24 h incubation, read-out: IC50 (nM) SU-DHL-6 24 h.
Setting [10] is: 48 h incubation, read-out: IC50 (nM) SU-DHL-6 48 h.
Setting [11] is: 24 h incubation, read-out: IC50 (nM) CCRF-CEM 24 h.
Where [12] appears, read: 48 h incubation, read-out: IC50 (nM) CCRF-CEM 48 h.
[13] abbreviates: 24 h incubation, read-out: IC50 (nM) SU-DHL-9 24 h.
The mark [14] stands for this setting: 48 h incubation, read-out: IC50 (nM) SU-DHL-9 48 h.

`COc1ccccc1/C=C/C=C/C(=O)c1cc(OC)c(OC)c(OC)c1` [Compound 1, 5-(2-Methoxyphenyl)-1-(3′,4′,5′-trimethoxyphenyl)-2,4-pentadiene-1-one]: the IC50 (as a rule, the midpoint of a concentration-inhibition curve) in data set [1] was 150 nM; in data set [3], around 10 nM; in data set [6] (setting [9]), 180 nM; in data set [6] (setting [10]), 20 nM; in data set [7] (setting [11]), 70 nM; in data set [7] (setting [12]) it was 70 nM. Besides, the IC50 in data set [8] (setting [13]) turned out to be 60 nM; in data set [8] (setting [14]), 50 nM. In addition, the “viability of healthy PBMC in suspension culture (toxicity)” value in data set [2] is listed as “less toxic”. Also, the “early apoptosis (propidium iodide/Annexin V FACS staining)” value in data set [4] was “induce early apoptosis”. In data set [5], the “viability of primary CLL cells in suspension culture” value was “effective in CLL cells at lower concentrations than the standard therapeutic drugs fludarabine and cyclophosphamide”.

On to `CCOc1ccccc1C(=O)/C=C/c1ccc2ccccc2c1` [Compound 22, 3-(2-Naphthyl)-1-(2′-ethoxyphenyl)-2-propene-1-one], for which the IC50 is 40 nM in data set [1]; around 10 nM in data set [3]; 10 nM in data set [6] (setting [9]); 40 nM in data set [6] (setting [10]); 40 nM in data set [7] (setting [11]); 40 nM in data set [7] (setting [12]). Also, the IC50 in data set [8] (setting [13]) was 30 nM; in data set [8] (setting [14]), 50 nM. Besides, the “potency relative to cisplatin” value in data set [1] (melanoma cell line 518A2, ratio of IC50 values) was “about 250 times”. For the same molecule, the “viability of healthy PBMC in suspension culture (toxicity)” value in data set [2] is listed as “less toxic”. In addition, the “early apoptosis (propidium iodide/Annexin V FACS staining)” value in data set [4] is listed as “induce early apoptosis”. Besides, the “viability of primary CLL cells in suspension culture” value in data set [5] is “effective in CLL cells at lower concentrations than the standard therapeutic drugs fludarabine and cyclophosphamide”.
